The assay concerns the target T1, muscarinic M3 receptor (Homo sapiens, UniProt P20309).
T1 construct: using HEK293 cells which express the receptor endogenously; endogenous in cells; host or cells: HEK293
Nature of the assay: Antagonist activity on muscarinic M3 receptor, FLIPR Tetra calcium assay in HEK293 cells. Conditions: antagonist mode versus carbachol at its EC50, HEK293 cells, calcium fluorescence. Type of assay: cell-based.

T1 sequence (P20309 whole entry): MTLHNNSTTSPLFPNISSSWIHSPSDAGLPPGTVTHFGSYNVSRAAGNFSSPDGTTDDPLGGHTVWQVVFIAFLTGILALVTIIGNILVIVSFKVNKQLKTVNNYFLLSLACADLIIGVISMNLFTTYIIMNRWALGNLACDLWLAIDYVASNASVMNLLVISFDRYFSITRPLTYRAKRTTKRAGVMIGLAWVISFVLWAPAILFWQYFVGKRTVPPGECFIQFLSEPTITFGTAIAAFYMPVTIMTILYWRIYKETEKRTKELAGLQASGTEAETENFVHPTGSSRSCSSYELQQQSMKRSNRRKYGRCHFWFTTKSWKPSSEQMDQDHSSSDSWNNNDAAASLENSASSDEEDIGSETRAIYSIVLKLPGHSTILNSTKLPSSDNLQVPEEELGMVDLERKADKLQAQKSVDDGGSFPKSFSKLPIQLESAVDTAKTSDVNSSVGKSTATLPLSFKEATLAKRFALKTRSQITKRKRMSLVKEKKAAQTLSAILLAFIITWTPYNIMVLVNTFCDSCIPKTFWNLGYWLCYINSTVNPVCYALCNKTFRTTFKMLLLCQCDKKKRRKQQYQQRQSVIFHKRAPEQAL

By IC50 is commonly meant the concentration that inhibits the measured activity by half. Turning to Vitamin E [Vitamin E (as in Example 1)], the half-maximal inhibitory concentration (IC50) was over 1 µg/mL.
